Experiment in all cases: NCI-60 cell line screen, 48 h
Assay [1] relates to OVCAR-4 ovarian.
Assay [2] deals with HOP-62 NSCLC.
Assay [3] relates to M14 melanoma.
The subject of assay [4] is HCT-116 colon.
For assay [5], the system named is U251 CNS.
The test system of assay [6] is TK-10 renal.
For assay [7], the system named is OVCAR-5 ovarian.
Assay [8] deals with A549 NSCLC.
Assay [9] has as its system HCC-2998 colon.
Assay [10] relates to SNB-75 CNS.

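All cell lines were grown in 96-well plates and treated with compound for 48 hours. GI50: concentration for 50% inhibition of growth. TGI denotes the concentration required for complete inhibition of growth.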

For the molecule `N=C(N)/N=C(\N)c1c(-c2cc(O)ccc2O)nc2sccn12`, the GI50 in assay [1] is 33.9 µM; in [2], 29.4 µM; in [3] it was 19.8 µM; in assay [4], 17.3 µM; in assay [5], 46.1 µM; in assay [6] it was 17.9 µM. For the same molecule, the GI50 was 18.3 µM in assay [7] and above 100 µM in assay [8]. Also, the TGI in [1] was above 100 µM; in assay [2] it was 84.6 µM; in [3], 37.9 µM; in assay [4] it was 35.9 µM; in [5], above 100 µM; in assay [6] it was 36.4 µM. The results for the TGI in assay [7] and in assay [8] were 33.1 µM and above 100 µM, respectively.

`CCOC(=O)C(Cc1c[nH]c2ccc([N+](=O)[O-])cc12)(NC(C)=O)C(=O)OCC`: the GI50 in assay [9] is above 1000 µM; in [10], 59.2 µM; in assay [2], 304 µM; in assay [3] it was above 1000 µM; in assay [4], 139 µM; in assay [5] it was 134 µM. The GI50 in assay [6] is 186 µM; in [7], above 1000 µM; in [8], 67.3 µM. Further, the TGI in assay [9] was above 1000 µM; in assay [10], 215 µM; in assay [2], above 606 µM; in assay [3], above 1000 µM; in assay [4], above 1000 µM; in assay [5], above 564 µM. In addition, the TGI in assay [6], in assay [7] and in assay [8] was above 1000 µM in each case.

Take `CC1=C(C(=O)Nc2ccccc2)C(c2ccc([N+](=O)[O-])cc2)C(C(=O)Nc2ccccc2)=C(C)N1`: the TGI in assay [9] was 45.8 µM; in assay [10] it was 82.1 µM; in assay [2], above 100 µM; in [3], 41.8 µM; in [4] it was 37.2 µM; in assay [5], 38.6 µM. Besides, the TGI in assay [6], in assay [7] and in assay [8] was above 100 µM throughout.

Take `COc1cc(Br)c(CC2(C#N)c3ccccc3C3C(N2C(=O)c2ccccc2)C3(Cl)Cl)cc1OC` (stereo not given): the TGI in [9], in assay [10], in assay [3], in assay [4], in assay [5] and in [6] was above 65.5 µM each time. Moreover, the TGI in assay [7] and in [8] was above 65.5 µM in each case.

With `NC(=O)/C(=C\c1ccncc1)c1cccc2ccccc12`, the TGI in [1], in [10], in assay [2], in [3], in assay [4] and in [5] was above 100 µM in each case. Besides, the TGI in assay [6], in [7] and in assay [8] was above 100 µM each time.

`C[N+](C)(C)CC(=O)N/N=C(\CCC(=O)NCCc1ccccc1)CC(=O)c1ccccc1`: the TGI in [9], in assay [1], in assay [2], in [3], in assay [4] and in assay [5] was above 100 µM throughout. For the same molecule, the TGI in assay [6], in [7] and in [8] was above 100 µM in each case.

As to `CC(/C=C/C(=O)c1sc(-n2nc(-c3ccccc3)cc2-c2ccccc2)nc1C)=C\c1ccccc1`, the TGI in assay [9], in assay [1], in assay [2], in [3], in assay [4] and in assay [5] was above 100 µM in each case. In assay [8], this molecule registered a TGI above 100 µM. Besides, the GI50 was above 100 µM in [1], 28.4 µM in assay [10], above 100 µM in assay [2] and above 100 µM in assay [3].

As for `O=C(/C=C/c1ccc(O)c(O)c1)OC1C[C@@](O)(C(=O)O)C[C@@H](O)[C@H]1OC(=O)/C=C/c1ccc(O)c(O)c1` (stereo not given in full), the TGI in assay [9], in [1], in assay [2], in [3], in [4] and in [5] was above 100 µM throughout. Moreover, the TGI in assay [6], in assay [7] and in assay [8] was above 100 µM in each case.

As to `O=Nc1ccc(O)c2ccccc12`, the GI50 in assay [9] was 3.31 µM; in assay [1], 1.17 µM; in [10] it was 1.44 µM; in assay [3], 1.83 µM; in [4], 1.17 µM; in assay [5] it was 1.65 µM. The GI50 in assay [6] was 2.24 µM; in assay [7], 2.13 µM; in assay [8] it was 2.14 µM. The TGI in [9] was 11.3 µM; in assay [1], 2.44 µM; in [10] it was 3.02 µM; in [3] it was 3.41 µM; in assay [4], 2.46 µM; in [5] it was 3.17 µM. Also, the TGI in [6] was 4.66 µM; in assay [7] it was 4.21 µM; in assay [8], 4.79 µM.

As to `O=C(NCCc1ccccc1)C(c1ccccc1)(c1ccccc1)c1ccccc1`, the GI50 was above 100 µM in [1]; above 100 µM in [10]; 7.1 µM in assay [2]; 1.95 µM in assay [4]; 2.93 µM in assay [5]; 1.86 µM in assay [6]. The GI50 is 3.91 µM in assay [7] and 1.75 µM in assay [8]. Also, the TGI in assay [1] is above 100 µM; in [10], above 100 µM; in assay [2], above 100 µM; in [4], above 100 µM; in assay [5], 12.4 µM; in [6], 9.42 µM. Further, the TGI turned out to be 50.6 µM in assay [7] and 5.59 µM in [8].

With `CC(C)C1C(=O)NC(CO)Cc2c[nH]c3c(C(c4c[nH]c5ccccc45)C(O)CO)ccc(c23)N1C` (stereo not given), the TGI in assay [9] was 18.5 µM; in [1] it was above 100 µM; in [10], above 100 µM; in assay [3], above 100 µM; in assay [4], above 100 µM; in assay [6], above 100 µM. Moreover, in assay [8], the TGI is above 100 µM.

The record behind these values is PubChem BioAssay (NCI).
